From US6465483B1, “Annelated dihydropyridines and the use thereof for preparing pharmaceutical preparations” (Boehringer Ingelheim GmbH, priority 1993, dated 2002)

How the values were obtained:
[1] = tested on: unselective cation channels (UCC); assay: Inhibition of Ca2+ entry through unselective cation channels after Thapsigargin stimulation, fura-2-charged RBL-hm 1 cells; type: cell-based, rat; conditions: Table 5, 0.1 μM Thapsigargin, test substance 10^−5 M
Procedure: For screening purposes, fura-2-charged adhesive RBL-hm 1 cells are stimulated with 0.1 μM Thapsigargin in a Ca^2+-free incubation medium. After 4 minutes, extracellular Ca^2+ is restored to a concentration of 1.5 mM and, using the fura-2-fluorescence, the excessive increase in the cytoplasmic Ca^2+-concentration caused by a massive transmembranal Ca^2+-entry through unselective cation channels is recorded.
The kinetics of the cytoplasmic Ca^2+-concentration is recorded continuously as a concentration/time curve after the cell activation stimulated by Thapsigargin (0.1 μM). The curves of two activated cell cultures are compared in the presence and absence of 10 μM test substance. The area under these curves (area under the curve=AUC) is integrated and recorded as a measurement of cell activation. The inhibitory potency of the UCC-blockers tested is determined using the following equation: [formula]
AUCinh area under the curve recorded in the presence of the stimulant plus 10 μM inhibitory test substance.
AUC control=area under the curve which is recorded only after the addition of the stimulant.
The uniform concentration of the test substances is 10^−5 mol or 10^−6 mol)

RBL-2H3-cells = assay: Antigen (DNP-BSA)-induced activation of sensitised RBL-2H3-cells, fluorometric cytoplasmic calcium measurement; type: cell-based, rat; conditions: 10 μM
Procedure: Individual RBL-2H3-cells (a tumour cell line related to the mast cells) adhering to glass slides are used.
The cultivation and attachment of the RBL-2H3-cells are carried out by the method described by HIDE and BEAVEN (1991). In order to sensitise the adhesive RBL-2H3-cells the cells are incubated for 2 hours at ambient temperature with a 1:2000 diluted commercial gammaglobulin E-solution against a dinitrophenol-bovine serum albumin complex (DNP-BSA-antigen). The cells are then washed. By the addition of 0.1 ml of DNP-BSA-solution (10 μg/ml) there is a massive immunological cell activation which is mediated by a cytoplasmic Ca^2+-overload. The fluorometric calcium measurement in the cytoplasm of individual adhering RBL-2H3-cells is carried out analogously to the method described by KUDO and OGURA (1986) for neuronal cells, which is also explained hereinbefore in this specification.
The comparison used in these investigations is (10 μM) chromoglycate which brings about an approximately 50% inhibition of the antigen-induced cell activation.

SMILES | % H (10^−5 M), percentage inhibition of UCC after Thapsigargin stimulation [1] [%] | inhibition of the antigen-induced cell activation (RBL-2H3-cells)
COc1cc2c(cc1OC)C(C(C(=O)N(Cc1ccccc1)Cc1ccccc1)c1ccsc1)=NCC2 (racemic) [(R,S)-(3,4-Dihydro-6,7-dimethoxyisoquinolin-1-yl)-2-(3-thienyl)-N,N-dibenzyl-acetamide] | 90.9 | –
O=C(O)c1cc(=O)c2c(OCC(O)COc3cccc4oc(C(=O)O)cc(=O)c34)cccc2o1 [chromoglycate] | – | approximately 50%
